From ChEMBL document CHEMBL1201862, “PubChem BioAssay data set” (2004)
Calls of active or inactive are those of the source.

Legend:
[1] = molecular target: Peroxisome proliferator-activated receptor gamma/Nuclear receptor coactivator 1 (Homo sapiens, UniProt P37231); format: functional;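 also: agonist potency as compounds enhance coactivator SRC-1 recruitment to PPARgamma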
[2] = molecular target: Peroxisome proliferator-activated receptor gamma/Nuclear receptor coactivator 3 (Homo sapiens, UniProt P37231); format: functional;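 also: agonist potency for raising coactivator recruitment to the receptor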
[3] = molecular target: Peroxisome proliferator-activated receptor gamma/Nuclear receptor coactivator 2 (Homo sapiens, UniProt P37231); format: functional;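 also: agonist potency for raising coactivator recruitment to the receptor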
[4] = M. tuberculosis H37Rv growth inhibitors, H37Rv strain (AID 1626); format: functional
[5] = A High Throughput Confirmatory Assay used to Identify Novel Compounds that Inhibit Mycobacterium Tuberculosis in the absence of Glycerol.; format: functional
[6] = microbe, parasite or virus in culture; format: functional; conditions: Mycobacterium tuberculosis
[7] = cells; format: functional, cell-based
[8] = cytotoxicity toward NIH3T3 fibroblasts, dose response, counter-screen, cell-based, ATP luminescence, mouse fibroblasts (AID 2010); format: functional;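 also: cells exposed to compound for about 90 hours before reading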
[9] = molecular target: Induced myeloid leukemia cell differentiation protein Mcl-1 (Homo sapiens, UniProt Q07820); assay: MCL1-BIM BH3 interaction inhibitors, dose response, biochemical, fluorescence polarization, BIM-BH3 peptide, 1536-well (AID 2217)
[10] = molecular target: Latent membrane protein 1 (Human herpesvirus 4 (strain B95-8), UniProt P03230); assay: TES1-eGFP NF-kB reporter inhibition versus Tet-On dsRED, dose response, selectivity assay for LMP1 NF-kB inhibitor project, imaging, HEK293T, dual-color eGFP/dsRED, cherry-picks (AID 588398); format: functional, cell-based
[11] = cells; format: functional, cell-based; remark: listed apart in the source
[12] = molecular target: Bcl-2-like protein 1 (Homo sapiens, UniProt Q07817); assay: BCL-XL inhibitors, dose response, selectivity assay for MCL1 inhibitor project, biochemical, fluorescence polarization, 1536-well (AID 2218)
[13] = inhibitors of intracellular T. cruzi replication, confirmation, NIH3T3 host cells, beta-gal luminescence (AID 2044); format: functional, cell-based;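 also: intracellular parasites grown in NIH/3T3 mouse fibroblasts as host cells; luminescent beta-galactosidase reporter signal from transgenic T. cruzi replicating inside host cells; inhibitors lower the luminescence signal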
[14] = tested on: HEK293; assay: inhibitors of LMP1-driven NF-kB reporter, dose response, cell-based, HEK293, luciferase, cherry-pick (AID 588343); format: functional; conditions: Homo sapiens
[15] = molecular target: T1, Bcl-2-related protein A1 (Mus musculus, UniProt Q07440); assay: Bfl-1 inhibitors blocking BH3 peptide binding, confirmation, biochemical, TR-FRET, mouse Bfl-1 (AID 621);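 also: TR-FRET binding of GST-Bfl-1 to FITC-labelled Bid peptide via terbium antibody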
T1 sequence (Q07440 whole entry): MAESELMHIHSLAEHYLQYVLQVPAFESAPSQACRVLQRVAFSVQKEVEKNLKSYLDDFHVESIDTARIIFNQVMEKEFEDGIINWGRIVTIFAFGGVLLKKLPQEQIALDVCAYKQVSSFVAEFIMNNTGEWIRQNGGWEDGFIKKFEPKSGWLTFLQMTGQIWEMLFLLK

[16] = molecular target: T1, Bcl-2-related protein A1; assay: Bfl-1 inhibitors, primary screen, biochemical, fluorescence polarization, FITC-Bid, mouse (AID 432)
[17] = tested on: H4; assay: Luminescence Cell-Based Dose Response HTS to Identify Activators of 5'UTR Stem-Loop Driven Prion Protein mRNA Translation in H4 Neuroglioblastoma Cells. [Related pubchem assays: 1829 (Project Summary), 1814 (Primary HTS)]; format: functional; conditions: Homo sapiens
[18] = Luminescence Cell-Based Dose Response to Identify Activators of 5'UTR Stem-Loop Driven Prion Protein mRNA Translation in H4-C Neuroglioblastoma Cells. [Related pubchem assays: 1829 (Project Summary), 1814 (Primary HTS)]; format: functional
[19] = Luminescence Cell-Based Dose Confirmation to Identify Activators of 5'UTR Stem-Loop Driven Alpha-Synuclein mRNA Translation in H4 Neuroglioblastoma Cells. [Related pubchem assays: 1829 (Project Summary), 1814 (Primary HTS)]; format: functional
[20] = Luminescence Cell-Based Dose Response HTS to Identify Activators of Luciferase Translation or Activity in H4 […] Cells. [Related pubchem assays: 1829 (Project Summary), 1814 (Primary HTS)]; format: functional
[21] = Luminescence Cell-Based Dose Response to Identify Activators of Luciferase Translation or Activity in H4-C Neuroglioblastoma Cells. [Related pubchem assays: 1829 (Project Summary), 1814 (Primary HTS)]; format: functional
[22] = molecular target: T1, Bcl-2-related protein A1; assay: Bfl-1 binding inhibitors, SAR follow-up, biochemical, fluorescence polarization (AID 1070)
[23] = molecular target: Glyceraldehyde-3-phosphate dehydrogenase (Homo sapiens, UniProt P04406)
Glyceraldehyde-3-phosphate dehydrogenase, sequence (P04406 whole entry): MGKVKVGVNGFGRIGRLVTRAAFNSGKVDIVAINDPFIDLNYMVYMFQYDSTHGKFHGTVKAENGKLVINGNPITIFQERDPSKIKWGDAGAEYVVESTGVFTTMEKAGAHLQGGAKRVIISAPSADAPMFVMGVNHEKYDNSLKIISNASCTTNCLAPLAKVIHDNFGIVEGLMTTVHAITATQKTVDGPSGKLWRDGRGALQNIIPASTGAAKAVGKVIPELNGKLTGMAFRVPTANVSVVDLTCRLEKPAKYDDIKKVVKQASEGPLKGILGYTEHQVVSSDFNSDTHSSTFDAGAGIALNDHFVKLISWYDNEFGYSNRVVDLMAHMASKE

Latent membrane protein 1, sequence (P03230 whole entry): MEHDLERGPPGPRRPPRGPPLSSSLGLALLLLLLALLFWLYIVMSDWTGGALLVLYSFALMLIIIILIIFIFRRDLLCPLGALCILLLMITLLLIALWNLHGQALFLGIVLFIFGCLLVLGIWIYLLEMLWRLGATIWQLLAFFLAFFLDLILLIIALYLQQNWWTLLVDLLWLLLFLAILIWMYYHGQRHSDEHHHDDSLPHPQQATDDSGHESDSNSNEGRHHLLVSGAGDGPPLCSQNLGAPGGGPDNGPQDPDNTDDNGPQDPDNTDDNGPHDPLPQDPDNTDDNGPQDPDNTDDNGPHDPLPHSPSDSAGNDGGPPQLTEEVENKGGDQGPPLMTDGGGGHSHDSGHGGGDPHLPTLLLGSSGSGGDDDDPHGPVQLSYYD
Bcl-2-like protein 1, sequence (Q07817 whole entry): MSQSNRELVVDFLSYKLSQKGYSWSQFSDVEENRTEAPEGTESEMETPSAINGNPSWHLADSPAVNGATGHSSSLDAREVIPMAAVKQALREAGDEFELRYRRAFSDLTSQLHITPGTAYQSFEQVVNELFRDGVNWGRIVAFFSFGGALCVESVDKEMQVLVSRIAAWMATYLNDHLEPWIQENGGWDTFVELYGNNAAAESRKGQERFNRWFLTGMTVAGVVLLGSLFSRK
Induced myeloid leukemia cell differentiation protein Mcl-1, sequence (Q07820 whole entry): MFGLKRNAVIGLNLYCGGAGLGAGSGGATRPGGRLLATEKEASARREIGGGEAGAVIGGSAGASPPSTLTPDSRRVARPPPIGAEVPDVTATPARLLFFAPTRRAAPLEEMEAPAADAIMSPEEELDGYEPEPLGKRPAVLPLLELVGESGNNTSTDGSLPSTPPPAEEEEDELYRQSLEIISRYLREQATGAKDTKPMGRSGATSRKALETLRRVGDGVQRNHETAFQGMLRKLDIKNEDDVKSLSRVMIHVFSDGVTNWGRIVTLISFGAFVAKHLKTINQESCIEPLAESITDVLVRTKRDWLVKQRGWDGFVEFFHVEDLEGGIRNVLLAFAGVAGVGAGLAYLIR
Peroxisome proliferator-activated receptor gamma/Nuclear receptor coactivator 3, sequence (P37231 whole entry): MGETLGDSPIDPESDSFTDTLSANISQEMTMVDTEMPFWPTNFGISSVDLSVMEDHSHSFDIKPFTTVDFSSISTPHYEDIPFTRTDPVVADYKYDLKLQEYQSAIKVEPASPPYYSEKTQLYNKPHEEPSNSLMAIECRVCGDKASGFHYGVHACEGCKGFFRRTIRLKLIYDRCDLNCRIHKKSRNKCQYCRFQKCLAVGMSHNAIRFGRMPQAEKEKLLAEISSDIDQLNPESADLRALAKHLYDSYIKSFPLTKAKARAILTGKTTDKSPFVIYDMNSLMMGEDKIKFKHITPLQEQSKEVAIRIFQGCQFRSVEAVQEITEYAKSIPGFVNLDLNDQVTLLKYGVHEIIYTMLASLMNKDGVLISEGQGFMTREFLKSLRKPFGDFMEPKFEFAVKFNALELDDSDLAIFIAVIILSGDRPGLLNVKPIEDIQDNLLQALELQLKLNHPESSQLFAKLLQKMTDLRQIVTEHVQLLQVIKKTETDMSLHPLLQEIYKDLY
Peroxisome proliferator-activated receptor gamma/Nuclear receptor coactivator 3, sequence (Q9Y6Q9 whole entry, further chain): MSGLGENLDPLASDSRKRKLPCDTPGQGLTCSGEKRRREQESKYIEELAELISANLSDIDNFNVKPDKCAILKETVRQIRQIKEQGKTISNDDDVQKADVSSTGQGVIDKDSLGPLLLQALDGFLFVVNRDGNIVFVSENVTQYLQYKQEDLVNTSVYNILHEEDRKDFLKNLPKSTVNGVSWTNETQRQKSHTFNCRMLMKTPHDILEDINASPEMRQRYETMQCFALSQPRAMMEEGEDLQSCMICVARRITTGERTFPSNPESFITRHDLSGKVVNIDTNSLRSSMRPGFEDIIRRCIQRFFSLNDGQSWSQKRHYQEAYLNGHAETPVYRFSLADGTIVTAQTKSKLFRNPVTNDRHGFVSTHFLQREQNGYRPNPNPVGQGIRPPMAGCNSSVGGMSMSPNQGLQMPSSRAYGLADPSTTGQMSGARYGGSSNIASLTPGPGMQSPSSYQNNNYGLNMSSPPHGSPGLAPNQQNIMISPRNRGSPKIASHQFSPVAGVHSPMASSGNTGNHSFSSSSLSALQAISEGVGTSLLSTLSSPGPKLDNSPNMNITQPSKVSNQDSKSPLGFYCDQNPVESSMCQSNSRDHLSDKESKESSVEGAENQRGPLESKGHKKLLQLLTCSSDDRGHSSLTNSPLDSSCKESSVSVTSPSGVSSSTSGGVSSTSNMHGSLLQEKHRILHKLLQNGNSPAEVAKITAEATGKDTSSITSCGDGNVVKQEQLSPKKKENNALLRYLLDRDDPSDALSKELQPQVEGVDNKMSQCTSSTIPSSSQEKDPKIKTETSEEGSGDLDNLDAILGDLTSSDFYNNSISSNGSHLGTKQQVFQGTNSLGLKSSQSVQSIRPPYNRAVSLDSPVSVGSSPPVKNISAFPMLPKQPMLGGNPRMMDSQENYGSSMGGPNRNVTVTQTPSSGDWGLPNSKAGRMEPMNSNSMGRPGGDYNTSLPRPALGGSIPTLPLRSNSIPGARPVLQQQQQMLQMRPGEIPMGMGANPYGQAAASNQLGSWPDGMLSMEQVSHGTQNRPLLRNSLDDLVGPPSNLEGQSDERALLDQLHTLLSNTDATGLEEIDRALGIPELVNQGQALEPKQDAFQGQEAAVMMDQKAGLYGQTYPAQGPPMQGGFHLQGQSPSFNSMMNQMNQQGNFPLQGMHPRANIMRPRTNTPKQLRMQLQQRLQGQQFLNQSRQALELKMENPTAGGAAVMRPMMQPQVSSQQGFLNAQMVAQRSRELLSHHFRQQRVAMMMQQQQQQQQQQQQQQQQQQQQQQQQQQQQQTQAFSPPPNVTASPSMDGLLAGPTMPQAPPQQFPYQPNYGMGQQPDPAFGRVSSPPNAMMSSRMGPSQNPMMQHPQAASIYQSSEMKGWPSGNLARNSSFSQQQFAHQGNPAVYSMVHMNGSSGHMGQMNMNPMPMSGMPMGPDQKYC

For O=C(COc1ccccc1-c1ccccc1)NCc1ccco1, the EC50 [1] was > 79.4 µM (not active), the EC50 [2] was > 79.4 µM (not active) and the EC50 [3] was > 79.4 µM (not active).

For O=C(CSC1=NCCS1)Nc1ccc2ccccc2c1, the IC50 [4] was > 100 µM (active).

For Cc1ccc(-c2noc(=O)n2CC(=O)c2ccc(Cl)cc2)cc1, the IC50 [5] was > 50 µM (active) and the CC50 [6] was > 40 µM (active).

In the case of Nc1ccc(C(=O)N/N=C\c2cc(N=Nc3cccc4ccccc34)ccc2O)cc1, the EC50 [7] is reported as > 350 µM (not active), the EC50 [8] is reported as 7.41 µM (active) and the IC50 [9] is reported as 6.83 µM (active). The AC50 [10] was 30.2 µM (active), the EC50 [11] was 7.62 µM (active) and the IC50 [12] was > 109 µM (not active). For the same compound, the EC50 [13] was 1.12 µM (active) and the AC50 [14] was 11.1 µM (active).

With C1=C(c2ccc(-c3ccccc3)cc2)Nc2ncnn2C1c1ccco1 (centres undefined) the IC50 [15] was > 100 µM (not active) and the IC50 [16] was > 100 µM (not active).

In the case of CC(=O)Nc1ccc2c(c1)ncn2-c1ccccc1, the EC50 [17] is reported as > 120 µM (not active), the EC50 [18] is reported as 608 nM (active) and the EC50 [19] is reported as 218 nM (active). For the same compound, the EC50 [20] was < 100 nM (inconclusive) and the EC50 [21] was 460 nM (active).

With O=C1C(Cl)=C(Nc2ccc(F)cc2)C(=O)N1c1ccc(Cl)c(Cl)c1 the IC50 [15] was 96.5 µM (active), the IC50 [22] was > 100 µM (not active) and the IC50 [23] was > 100 µM (not active).
